Measurements taken from ChEMBL document CHEMBL1201862, “PubChem BioAssay data set” (2004).
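Protocol summary: plate cells (96-well), add compound at 5 concentrations, incubate 48 h, interpolate endpoints linearly. GI50 is the concentration that inhibits growth by half.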 Activity calls are given as the source filed them. Cut-off read from the data, not from the text of the source: active = GI50 up to about 1.1 µM and inactive = higher.

Tests used:
Experiment in all cases: DTP human tumour cell line panel, 48 h
[1] = tested on: A549
[2] = tested on: SF-295
[3] = tested on: T47D
[4] = tested on: CCRF-CEM
[5] = tested on: MDA-MB-231
[6] = tested on: OVCAR-5
[7] = tested on: SF-268
[8] = tested on: M14
[9] = tested on: IGROV-1
[10] = tested on: SNB-19
[11] = tested on: HOP-92
[12] = tested on: NCI-H23
[13] = tested on: DU-145
[14] = tested on: HOP-62
[15] = tested on: SF-539
[16] = tested on: UACC-257
[17] = tested on: Hs-578T
[18] = tested on: HCT-15
[19] = tested on: KM12
[20] = tested on: SN12C
[21] = tested on: UO-31
[22] = tested on: SW-620
[23] = tested on: NCI-H226
[24] = tested on: MDA-N
[25] = tested on: ACHN
[26] = tested on: LOX IMVI
[27] = tested on: SR
[28] = tested on: RPMI-8226
[29] = tested on: TK-10
[30] = tested on: Malme-3M
[31] = tested on: COLO 205
[32] = tested on: HCT-116
[33] = tested on: MDA-MB-435
[34] = tested on: SK-OV-3
[35] = tested on: 786-0
[36] = tested on: PC-3
[37] = tested on: U-251
[38] = tested on: SK-MEL-5
[39] = tested on: MCF7
[40] = tested on: K562
[41] = tested on: OVCAR-3
[42] = tested on: SK-MEL-2
[43] = tested on: NCI-H522
[44] = tested on: BT-549
[45] = tested on: NCI/ADR-RES
[46] = tested on: EKVX
[47] = tested on: UACC-62
[48] = tested on: CAKI-1
[49] = tested on: OVCAR-4
[50] = tested on: A498
[51] = tested on: OVCAR-8
[52] = tested on: SK-MEL-28
[53] = tested on: HL-60
[54] = tested on: MOLT-4
[55] = tested on: HT-29
[56] = tested on: RXF 393
[57] = tested on: NCI-H460
[58] = tested on: SNB-75
[59] = tested on: HCC 2998

Measured: GI50

CCOc1ccc(C(c2c(O)c3ccccc3oc2=O)c2c(O)c3ccccc3oc2=O)cc1
inactive: [1] 69.8 µM | [2] > 100 µM | [3] 41.4 µM | [4] 27 µM | [5] 58.5 µM | [6] > 100 µM | [7] 44.5 µM | [8] 42.3 µM | [9] > 100 µM | [10] 91 µM | [11] 23.6 µM | [12] 44.4 µM | [13] > 100 µM | [14] 61.5 µM | [15] 48 µM | [16] 35.6 µM | [17] 37.6 µM | [19] 56.9 µM | [20] 43.8 µM | [21] 20.5 µM | [22] 79.4 µM | [23] 95.9 µM | [24] 60 µM | [25] 74.6 µM | [26] 66.5 µM | [27] 26 µM | [28] 32.2 µM | [29] 49.5 µM | [30] 48.8 µM | [31] > 100 µM | [32] 48.4 µM | [33] 70.3 µM | [34] 47.4 µM | [35] 78.2 µM | [36] 29.6 µM | [37] 32.7 µM | [38] 44.5 µM | [39] 46.6 µM | [40] 53.8 µM | [41] 43.8 µM | [42] 24.1 µM | [43] 30.7 µM | [44] 67.8 µM | [45] 98.6 µM | [46] 80.4 µM | [47] 38.7 µM | [48] 93.8 µM | [49] > 100 µM | [50] 36.1 µM | [51] 43.9 µM | [52] 80 µM | [53] 19.9 µM | [54] 33.6 µM | [55] 40.9 µM
65.5 µM: [18]

O=c1c2cc([N+](=O)[O-])ccc2nc2n1CCCCC2
> 100 µM: [18]
inactive: [1] > 100 µM | [2] > 100 µM | [3] > 100 µM | [4] 21.5 µM | [5] > 100 µM | [6] > 100 µM | [7] > 100 µM | [8] > 100 µM | [9] > 100 µM | [11] > 100 µM | [12] > 100 µM | [13] > 100 µM | [14] > 100 µM | [15] > 100 µM | [16] > 100 µM | [17] 43.3 µM | [56] > 100 µM | [19] > 100 µM | [20] > 100 µM | [21] > 100 µM | [22] > 100 µM | [23] > 100 µM | [24] > 100 µM | [25] > 100 µM | [26] > 100 µM | [27] > 100 µM | [28] > 100 µM | [57] > 100 µM | [29] > 100 µM | [30] > 100 µM | [31] > 100 µM | [32] > 100 µM | [33] > 100 µM | [34] > 100 µM | [35] > 100 µM | [36] 89.3 µM | [37] > 100 µM | [38] > 100 µM | [39] > 100 µM | [40] > 100 µM | [41] > 100 µM | [42] > 100 µM | [43] > 100 µM | [44] 78 µM | [45] > 100 µM | [46] 66.4 µM | [47] > 100 µM | [58] 57.1 µM | [48] 79.6 µM | [49] > 100 µM | [50] 87.9 µM | [51] > 100 µM | [52] > 100 µM | [53] 14.2 µM | [54] > 100 µM | [55] > 100 µM

Cc1ccc(-c2cc(=O)c(=O)[nH][nH]2)cc1
inactive: [1] > 100 µM | [2] > 100 µM | [3] > 100 µM | [4] > 100 µM | [5] > 100 µM | [6] > 100 µM | [7] > 100 µM | [8] > 100 µM | [9] 45.1 µM | [59] > 100 µM | [11] > 100 µM | [12] > 100 µM | [13] > 100 µM | [14] > 100 µM | [15] > 100 µM | [16] > 100 µM | [17] 68.4 µM | [56] > 100 µM | [19] > 100 µM | [20] > 100 µM | [21] > 100 µM | [22] > 100 µM | [23] > 100 µM | [24] > 100 µM | [25] > 100 µM | [26] > 100 µM | [27] > 100 µM | [57] > 100 µM | [29] > 100 µM | [31] > 100 µM | [32] > 100 µM | [33] > 100 µM | [34] > 100 µM | [35] > 100 µM | [36] > 100 µM | [37] > 100 µM | [38] > 100 µM | [39] > 100 µM | [40] > 100 µM | [41] > 100 µM | [42] > 100 µM | [43] 36.9 µM | [44] > 100 µM | [45] > 100 µM | [46] > 100 µM | [47] > 100 µM | [58] 18 µM | [48] > 100 µM | [49] > 100 µM | [50] > 100 µM | [51] > 100 µM | [52] > 100 µM | [54] > 100 µM | [55] > 100 µM
> 100 µM: [18]
